Structures can show the parent of a compound that is named as a salt. Where two headings read alike, the source gives them in different places.
Assays:
Assay in all cases: microbe, parasite or virus in culture
Type in all cases: cell-based
[1] = system: Rift Valley fever virus (RVFV) vaccine strain MP-12; settings: Vero
Chlamydophila caviae = settings: Chlamydia caviae, Vero, read-out: Avg Activity (C. Caviae)
vaccinia virus = settings: Orthopoxvirus vaccinia, read-out: Avg Activity (VV)
HIV-1 = settings: Human immunodeficiency virus 1, read-out: Misc Virus Activity: HIV-1
La Crosse virus (LACV) = settings: La Crosse virus, Vero
[2] = system: lymphocytic choriomeningitis virus; settings: for EC50: Mammarenavirus choriomeningitidis, read-out: Misc Virus Activity: Lymphocytic Choriomeningitis
[3] = system: respiratory syncytial virus; settings: human respiratory syncytial virus, read-out: Misc Virus Activity: Respiratory Syncytial
Tacaribe virus = settings: Mammarenavirus tacaribeense, Vero
[4] = system: encephalomyocarditis virus; settings: Cardiovirus A, read-out: Misc Virus Activity: Encephalomyocarditis
influenza virus = settings: unidentified influenza virus
Andes virus = system: Andes virus
Sindbis virus = settings: read-out: Misc Virus Activity: Sindbis
Ebola virus = settings: Zaire ebolavirus
dengue virus = system: dengue virus
[5] = read-out: Misc Virus Activity: Rift Valley Fever
[6] = read-out: Misc Virus Activity: Tacaribe
[7] = A549, read-out: Misc Virus Activity: Influenza
[8] = read-out: Misc Virus Activity: Ebola
[9] = read-out: Misc Virus Activity: Dengue
[10] = read-out: Misc Activity: Tacaribe
[11] = A549, read-out: Misc Activity: Influenza
[12] = read-out: Misc Activity: Dengue

COc1cc(NC(=S)NC(=O)c2ccc(C(C)(C)C)cc2)ccc1NC(=O)c1ccccc1Cl [Compound 39]
EC50 [1, 5]: < 1000 nM
EC50 (Chlamydophila caviae): < 1000 nM
EC50 (vaccinia virus): < 1000 nM
EC50 (HIV-1): < 1000 nM
EC50 (La Crosse virus (LACV); read-out: Avg Activity (LACV)): < 1000 nM
Lymphocytic Choriomeningitis: reduces yield [2]: (reduces yield >10^4-fold)
EC50 [2]: < 1000 nM
EC50 [3]: < 1000 nM
EC50 (Tacaribe virus; [6]): < 1000 nM
EC50 [4]: < 1000 nM
EC50 (influenza virus; [7]): < 1000 nM
Andes: reduces yield (Andes virus): yield >100-fold)
EC50 (Andes virus; Orthohantavirus andesense, read-out: Misc Virus Activity: Andes): < 1000 nM
EC50 (Sindbis virus): < 1000 nM
EC50 (Ebola virus; [8]): < 1000 nM
EC50 (dengue virus; [9]): < 1000 nM

CC(C)(C)c1ccc(C(=O)NC(=S)Nc2ccc(NC(=O)c3ccccc3Cl)c(N)c2)cc1 [Compound 6, N-[2-amino-4-[(4-tert-butylbenzoyl)-carbamothioylamino]-phenyl]-2-chloro-benzamide hydrochloride]
EC50 (Chlamydophila caviae): < 1000 nM
EC50 (vaccinia virus): < 1000 nM
EC50 (La Crosse virus (LACV); read-out: Avg Activity (LACV)): < 1000 nM
EC50 (Tacaribe virus; [10]): < 1000 nM
EC50 (influenza virus; [11]): < 1000 nM
EC50 (Ebola virus; read-out: Misc Activity: Ebola): 1000 to 10000 nM
EC50 (dengue virus; [12]): < 1000 nM

CC(C)(C)c1ccc(C(=O)NC(=S)Nc2ccccc2Cl)cc1 [Compound 40, 4-tert-butyl-N-[(2-chlorophenyl)carbamothioyl]-benzamide]
EC50 [1, 5]: < 1000 nM
EC50 (Chlamydophila caviae): < 1000 nM
EC50 (vaccinia virus): < 1000 nM
EC50 (La Crosse virus (LACV); read-out: Avg Activity (LACV)): < 1000 nM
Lymphocytic Choriomeningitis: reduces yield [2]: (reduces yield >10^4-fold)
EC50 [2]: < 1000 nM
EC50 (Tacaribe virus; [6]): < 1000 nM
EC50 (influenza virus; [7]): < 1000 nM
EC50 (Ebola virus; [8]): 10000 to 25000 nM
EC50 (dengue virus; [9]): < 1000 nM

NC(=O)c1ncn([C@@H]2O[C@H](CO)[C@@H](O)[C@H]2O)n1 [ribavirin, reference compound]
EC50 ([1]; read-out: EC50 value for RVFV): 300000 nM
EC50 (La Crosse virus (LACV); read-out: EC50 value for LACV): 750000 nM

CN(C)c1ccc(NC(=S)NC(=O)c2ccc(C(C)(C)C)cc2)cc1 [Compound 49, 4-tert-butyl-N-[(4-dimethylaminophenyl)-carbamothioyl]benzamide]
EC50 (Chlamydophila caviae): 1000 to 10000 nM
EC50 (vaccinia virus): 1000 to 10000 nM
EC50 (La Crosse virus (LACV); read-out: Avg Activity (LACV)): < 1000 nM
EC50 (Tacaribe virus; [6]): < 1000 nM
EC50 (influenza virus; [7]): < 1000 nM
EC50 (dengue virus; [9]): < 1000 nM

CC(C)(C)c1ccc(C(=O)NC(=S)Nc2cccc(N)c2)cc1 [Compound 17, N-[(3-aminophenyl)-carbamothioyl]-4-tert-butyl-benzamide]
EC50 (Chlamydophila caviae): < 1000 nM
EC50 (vaccinia virus): 1000 to 10000 nM
EC50 (La Crosse virus (LACV); read-out: Avg Activity (LACV)): 1000 to 10000 nM
EC50 (Tacaribe virus; [10]): < 1000 nM
EC50 (influenza virus; [11]): < 1000 nM
EC50 (dengue virus; [12]): < 1000 nM

— US9566254B2, “Inhibitors and methods of inhibiting bacterial and viral pathogens” (priority 2010, dated 2017)
